# Reference: patent US20250221966A1, “RXFP1 AGONISTS” (BRISTOL-MYERS SQUIBB COMPANY, priority 2021, published 2025)
# Target: T1, human RXFP1 (Homo sapiens, UniProt Q9HBX9)
# T1 construct: expressed in transfected cells
# T1 sequence (Q9HBX9 1-757): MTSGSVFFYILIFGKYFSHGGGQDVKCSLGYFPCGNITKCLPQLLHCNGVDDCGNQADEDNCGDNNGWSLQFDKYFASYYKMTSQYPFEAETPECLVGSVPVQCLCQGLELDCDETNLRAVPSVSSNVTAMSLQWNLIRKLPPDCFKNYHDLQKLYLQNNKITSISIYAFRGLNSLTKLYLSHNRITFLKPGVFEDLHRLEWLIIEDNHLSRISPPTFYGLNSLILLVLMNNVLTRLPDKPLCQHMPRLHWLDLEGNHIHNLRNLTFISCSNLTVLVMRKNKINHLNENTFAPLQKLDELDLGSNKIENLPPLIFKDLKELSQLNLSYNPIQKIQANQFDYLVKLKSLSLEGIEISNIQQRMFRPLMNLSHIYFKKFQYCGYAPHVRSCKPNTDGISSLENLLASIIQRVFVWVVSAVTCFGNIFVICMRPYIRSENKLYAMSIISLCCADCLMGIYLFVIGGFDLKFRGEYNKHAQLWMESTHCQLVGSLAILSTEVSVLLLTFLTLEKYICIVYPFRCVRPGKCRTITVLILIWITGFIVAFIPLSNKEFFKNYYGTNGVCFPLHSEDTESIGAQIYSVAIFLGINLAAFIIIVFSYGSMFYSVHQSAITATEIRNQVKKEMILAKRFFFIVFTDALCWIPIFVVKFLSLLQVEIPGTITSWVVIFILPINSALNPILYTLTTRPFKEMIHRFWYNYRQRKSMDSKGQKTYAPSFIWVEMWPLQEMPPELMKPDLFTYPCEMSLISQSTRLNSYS
# Experiment: RXFP1 cAMP assay (hRXFP1 HEK293 cAMP assay, HTRF)
# Format: cell-based
# Conditions: HEK293 cells stably expressing human RXFP1, 30 min at room temperature, read-out: cAMP hRXFP1 HEK293 Assay EC50
# Summary of the method: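 In a stable human RXFP1 HEK293 line, compounds acted for 30 min at RT in buffer with 0.5 mM IBMX. HTRF then quantified cellular cAMP.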
row,Compound,EC50
1,"COc1ccc(C2=NOC(C(=O)O)C2)cc1C(=O)N[C@@H]1C2CCC(/C2=C/C2CC2)[C@@H]1C(=O)Nc1ccc(F)c(C(F)(F)F)c1 (single isomer, unassigned) [Example 385]",0.008 µM
2,COc1ncc(-c2ccc(OC)c(C(=O)N[C@@H]3C4CCC(/C4=C/C4CC4)[C@@H]3C(=O)Nc3ccc(F)c(C(F)(F)F)c3)c2)cn1 (some centres unmarked) [compound 279],0.015 µM
3,COc1ccc(C2=NOC3CC(CO)CC23)cc1C(=O)N[C@H]1[C@@H](C(=O)N[C@H](C)C2(C)CC2)[C@H]2CC[C@@H]1/C2=C\c1csc(C(F)F)n1 (some centres unmarked) [compound 741],0.0017 µM
4,COc1cc(F)c(F)cc1C(=O)NC1C2CCC(C2=Cc2ncco2)C1C(=O)Nc1ccc(F)c(C(F)(F)F)c1 (centres unmarked) [Example 145],1.3 µM
5,COc1ccc(C2=NOC3CC(C(O)C(F)(F)F)CC23)cc1C(=O)N[C@H]1[C@@H](C(=O)Nc2ccc(F)c(C(F)(F)F)c2)[C@H]2CC[C@@H]1/C2=C\C1CC1 (some centres unmarked) [compound 856],0.0047 µM
6,COc1ccc(N2CC[C@H](O)C2=O)cc1C(=O)N[C@H]1[C@@H](C(=O)Nc2ccc(F)c(C(F)(F)F)c2)[C@H]2CC[C@@H]1/C2=C\C1CC1 [compound 627],0.176 µM
7,"COc1ccc(C2=NOC(CO)C2CO)cc1C(=O)N[C@H]1[C@@H](C(=O)Nc2ccc(F)c(C(F)(F)F)c2)[C@H]2CC[C@@H]1/C2=C\C1CC1 (single isomer, unassigned) [compound 657]",0.312 µM
8,COc1ccc(/C=C2\C3CCC2[C@H](C(=O)Nc2ccc(F)c(C(F)(F)F)c2)[C@@H]3NC(=O)c2cc(F)c(F)cc2OC)cc1 (some centres unmarked) [compound 20],0.94 µM
9,COc1ccc(C2=NOC3CCCC23)cc1C(=O)N[C@@H]1C2CCC(/C2=C/C2CC2)[C@@H]1C(=O)Nc1ccc(F)c(C(F)(F)F)c1 (some centres unmarked) [compound 440],0.025 µM
10,COc1cc(F)c(F)cc1C(=O)N[C@@H]1C2CCC(/C2=C/c2ccccc2)[C@@H]1C(=O)Nc1cccc(S(C)(=O)=O)c1 (some centres unmarked) [compound 139],0.55 µM
11,COc1cc(F)c(F)cc1C(=O)N[C@@H]1C2CCC(C2Cc2ccccc2)[C@@H]1C(=O)Nc1ccc(F)c(C(F)(F)F)c1 (some centres unmarked) [compound 976],0.71 µM
12,COc1ccc(-c2cc(C(=O)O)ccc2F)cc1C(=O)N[C@@H]1C2CCC(/C2=C/C(=O)N(C)C)[C@@H]1C(=O)Nc1ccc(F)c(C(F)(F)F)c1 (some centres unmarked) [Example 323],0.854 µM
13,COC(=O)C1CC2ON=C(c3ccc(OC)c(C(=O)N[C@H]4[C@@H](C(=O)Nc5ccc(F)c(C(F)(F)F)c5)[C@H]5CC[C@@H]4/C5=C\C4CC4)c3)C2C1 (some centres unmarked) [compound 512],0.0157 µM
14,COc1ccc(C2=NOC3COCC23)cc1C(=O)N[C@H]1[C@@H](C(=O)NCCc2cccc(C)c2)[C@H]2CC[C@@H]1/C2=C\C1CC1 (some centres unmarked) [compound 650],0.262 µM
15,COc1ccc(C2=NOC3CC(C#N)CC23)cc1C(=O)N[C@H]1[C@@H](C(=O)N[C@H](C)C2(C)CC2)[C@H]2CC[C@@H]1/C2=C\C1CC1 (some centres unmarked) [compound 760],0.0012 µM
16,COc1ccc(C2=NOC(CCO)C2)cc1C(=O)N[C@@H]1C2CCC(/C2=C/C2CC2)[C@@H]1C(=O)Nc1ccc(F)c(C(F)(F)F)c1 (some centres unmarked) [compound 398],0.037 µM
17,COc1ccc(-c2cc(C(OC(=O)NC(C)(C)C)C(F)(F)F)ccc2F)cc1C(=O)N[C@@H]1C2CCC(/C2=C/C2CC2)[C@@H]1C(=O)Nc1ccc(F)c(C(F)(F)F)c1 (some centres unmarked) [compound 210],0.001 µM
18,"COc1ccc(C2=NOC3CC(C(O)C(F)(F)F)CC23)cc1C(=O)N[C@H]1[C@@H](C(=O)Nc2ccc(F)c(C(F)(F)F)c2)[C@H]2CC[C@@H]1/C2=C\C1CC1 (single isomer, unassigned) [Example 530]",0.0227 µM
19,COc1cc(F)c(F)cc1C(=O)N[C@@H]1C2CCC(/C2=C/C2=CCCC2)[C@@H]1C(=O)Nc1ccc(F)c(C(F)(F)F)c1 (some centres unmarked) [compound 38],0.36 µM
20,"COc1ccc(-c2cc(C(OC(=O)NC34CC(C3)C4)C(F)(F)F)ccc2F)cc1C(=O)N[C@H]1[C@@H](C(=O)Nc2ccc(F)c(C(F)(F)F)c2)[C@H]2CC[C@@H]1/C2=C\C1CC1 (single isomer, unassigned) [Example 206]",0.001 µM
21,COc1cc(F)c(F)cc1C(=O)N[C@@H]1C2CCC(/C2=C/c2cccc(CN3CCOCC3)c2)[C@@H]1C(=O)Nc1ccc(F)c(C(F)(F)F)c1 (some centres unmarked) [compound 70],2.9 µM
22,"COc1ccc(C2=NOC(C3(O)CC3)C2)cc1C(=O)N[C@H]1[C@@H](C(=O)Nc2ccc(F)c(C(F)(F)F)c2)[C@H]2CC[C@@H]1/C2=C\C1CC1 (single isomer, unassigned) [compound 491]",0.0087 µM

row,Compound,EC50
1,COc1cc(F)c(F)cc1C(=O)N[C@@H]1C2CCC(/C2=C\c2ccccc2)[C@]1(F)C(=O)Nc1ccc(F)c(C(F)(F)F)c1 (some centres unmarked) [Example 52],3 µM
2,COc1ccc(C2=NOC3COCC23)cc1C(=O)N[C@H]1[C@@H](C(=O)NCc2ncccc2C(F)(F)F)[C@H]2CC[C@@H]1/C2=C\C1CC1 (some centres unmarked) [compound 690],0.712 µM
3,COc1cc(F)c(F)cc1C(=O)N[C@@H]1C2CCC(/C2=C/c2cccc(C#N)c2)[C@@H]1C(=O)Nc1ccc(F)c(C(F)(F)F)c1 (some centres unmarked) [compound 59],0.89 µM
4,COc1cc(F)c(F)cc1C(=O)N[C@@H]1C2CCC(/C2=C/C=C/c2ccccc2)[C@@H]1C(=O)Nc1ccc(F)c(C(F)(F)F)c1 (some centres unmarked) [compound 64],0.52 µM
5,COc1ccc(-c2cc(C(=O)O)ccc2F)cc1C(=O)N[C@@H]1C2CCC(/C2=C/c2ccoc2)[C@@H]1C(=O)Nc1ccc(F)c(C(F)(F)F)c1 (some centres unmarked) [compound 159],0.021 µM
6,COc1ccc(-c2cccnc2F)cc1C(=O)N[C@H]1[C@@H](C(=O)Nc2ccc(F)c(C(F)(F)F)c2)[C@H]2CC[C@@H]1/C2=C\c1ccccc1 [compound 82],0.041 µM
7,COc1ccc(C2=NOC3COCC23)cc1C(=O)N[C@H]1[C@@H](C(=O)NC(C)(C)c2ccccc2Cl)[C@H]2CC[C@@H]1/C2=C\C1CC1 (some centres unmarked) [compound 669],0.416 µM
8,CNC(=O)OC(C(=O)NOC)c1ccc(F)c(-c2ccc(OC)c(C(=O)N[C@@H]3C4CCC(/C4=C/C4CC4)[C@@H]3C(=O)Nc3ccc(F)c(C(F)(F)F)c3)c2)c1 (some centres unmarked) [compound 234],0.001 µM
9,COc1ccc(-c2cc(C(OC(=O)Nc3ccccc3)C(=O)O)ccc2F)cc1C(=O)N[C@@H]1C2CCC(/C2=C/C2CC2)[C@@H]1C(=O)Nc1ccc(F)c(C(F)(F)F)c1 (some centres unmarked) [Example 177],0.005 µM
10,"COc1ccc(C2=NOC(C(C)O)C2)cc1C(=O)N[C@H]1[C@@H](C(=O)Nc2ccc(F)c(C(F)(F)F)c2)[C@H]2CC[C@@H]1/C2=C\C1CC1 (single isomer, unassigned) [compound 598]",0.102 µM
11,COc1ccc(-c2ccnc(C(F)F)c2)cc1C(=O)N[C@@H]1C2CCC(/C2=C/C2CC2)[C@@H]1C(=O)Nc1ccc(F)c(C(F)(F)F)c1 (some centres unmarked) [compound 284],0.109 µM
12,COc1ccc(C2=NOC(CC(=O)O)C2)cc1C(=O)N[C@@H]1C2CCC(/C2=C/C(F)(F)F)[C@@H]1C(=O)Nc1ccc(F)c(C(F)(F)F)c1 (some centres unmarked) [compound 396],0.32 µM
13,"COc1ccc(C2=NOC(C3(O)CCCCC3)C2)cc1C(=O)N[C@H]1[C@@H](C(=O)Nc2ccc(F)c(C(F)(F)F)c2)[C@H]2CC[C@@H]1/C2=C\C1CC1 (single isomer, unassigned) [compound 615]",0.139 µM
14,O=C(N[C@H]1[C@@H](C(=O)NC23CC(F)(C2)C3)[C@H]2CC[C@@H]1/C2=C\C1CC1)c1cc(C2=NOC3CC(CO)CC23)cc(F)c1OCC1CC1 (some centres unmarked) [compound 763],0.0021 µM
15,COc1ccc(C2=NOC3COCC23)cc1C(=O)N[C@H]1[C@@H](C(=O)NC2CCCC2)[C@H]2CC[C@@H]1/C2=C\C1CC1 (some centres unmarked) [Example 565],0.0507 µM
16,CCC(CC)CNC(=O)[C@@H]1[C@H](NC(=O)c2cc(C3=NOC4COCC34)ccc2OC)[C@@H]2CC[C@H]1/C2=C/C1CC1 (some centres unmarked) [compound 553],0.0374 µM
17,COc1ccc(C2=NOC3(CCCC3)C2)cc1C(=O)N[C@H]1[C@@H](C(=O)Nc2ccc(F)c(C(F)(F)F)c2)[C@H]2CC[C@@H]1/C2=C\C1CC1 [compound 642],0.219 µM
18,COc1ccc(C2=NOC3COCC23)cc1C(=O)N[C@H]1[C@@H](C(=O)N[C@@H]2CCOc3ccccc32)[C@H]2CC[C@@H]1/C2=C\C1CC1 (some centres unmarked) [compound 645],0.239 µM
19,COc1c(F)cc(C2=NOC3CC(O)CC23)cc1C(=O)N[C@H]1[C@@H](C(=O)Nc2ccc(F)c(C(F)(F)F)c2)[C@H]2CC[C@@H]1/C2=C\C1CCCC1 (some centres unmarked) [compound 868],0.0038 µM
20,COc1ccc(-n2nccc2C(=O)O)cc1C(=O)N[C@@H]1C2CCC(/C2=C/C(F)(F)F)[C@@H]1C(=O)Nc1ccc(F)c(C(F)(F)F)c1 (some centres unmarked) [compound 345],1.4 µM
21,"COc1ccc(C2=NOC3COCC23)c(F)c1C(=O)N[C@H]1[C@@H](C(=O)Nc2ccc(F)c(C(F)(F)F)c2)[C@H]2CC[C@@H]1/C2=C\C1CC1 (single isomer, unassigned) [compound 513]",0.0165 µM
22,COc1ccc(C2=NOC3COCC23)cc1C(=O)N[C@H]1[C@@H](C(=O)N[C@H](C)C(C)(C)C)[C@H]2CC[C@@H]1/C2=C\C1CC1 (some centres unmarked) [compound 485],0.0078 µM
